Results on five compounds are retold here after patent US20240285571A1, “METHODS OF TREATING BONE INFECTIONS” (MICROBION CORPORATION, priority 2020, published 2024).

What all share (test): MIC of baseline clinical isolates (Example 8)
Type in all cases: cell-based

Assay [1] concerns S. aureus (MRSA, MSSA). Particulars: Staphylococcus aureus, MRSA baseline isolates (N′ = 4), central laboratory, mITT. The procedure: (§1) Microbiology was assessed on Day 1 and at the time of any subsequent surgical procedure at the index site. Samples were collected from the infected bone site or involved tissue adjacent to any implant(s), swabs of the deep infection site, and the superficial tissue/wound closure/sinus tract site. […] Parallel sets of samples were analyzed by the local clinical site laboratory to guide patient antibiotic treatment.

Assay [2] has as its system S. epidermidis. Particulars: Staphylococcus epidermidis baseline isolates (N′ = 5), central laboratory, mITT. The procedure: as §1
Assay [3] has as its system Staphylococcus arlettae. Particulars: Staphylococcus arlettae baseline isolates (N′ = 1), central laboratory, mITT. How it is done: as §1
The subject of assay [4] is Staphylococcus haemolyticus. The conditions noted are these: Staphylococcus haemolyticus baseline isolates (N′ = 1), central laboratory, mITT. The procedure: as §1
Assay [5] has as its system Staphylococcus hominis. Particulars: Staphylococcus hominis baseline isolates (N′ = 1), central laboratory, mITT. How it is done:
as §1

In assay [6] the test system is Staphylococcus lugdunensis. Particulars: Staphylococcus lugdunensis baseline isolates (N′ = 3), central laboratory, mITT. The procedure:
as §1

Assay [7] deals with Staphylococcus pasteuri. Particulars: Staphylococcus pasteuri baseline isolates (N′ = 1), central laboratory, mITT. How it is done: as §1
In assay [8] the test system is Corynebacterium amycolatum. Particulars: Corynebacterium amycolatum baseline isolates (N′ = 1), central laboratory, mITT. How it is done:
(§2) Microbiology was assessed on Day 1 and at the time of any subsequent surgical procedure at the index site. Samples were collected from the infected bone site or involved tissue adjacent to any implant(s), swabs of the deep infection site, and the superficial tissue/wound closure/sinus tract site. Isolation and identification of aerobic and anerobic bacteria was conducted at a central microbiology laboratory (IHMA, Schaumburg, IL) and susceptibility of the isolates to MBN-101 (BisEDT) and comparator agents was performed per Clinical and Laboratory Standards Institute (CLSI). Parallel sets of samples were analyzed by the local clinical site laboratory to guide patient antibiotic treatment.

Assay [9] has as its system Corynebacterium jeikeium. Particulars: Corynebacterium jeikeium baseline isolates (N′ = 2), central laboratory, mITT. The procedure: as §2
Assay [10] has as its system Corynebacterium resistens. Particulars: Corynebacterium resistens baseline isolates (N′ = 1), central laboratory, mITT. How it is done:
as §2

Assay [11] deals with Dermabacter hominis. The conditions noted are these: Dermabacter hominis baseline isolates (N′ = 1), central laboratory, mITT. The procedure: as §2
For assay [12], the system named is Streptococcus oralis. The conditions noted are these: Streptococcus oralis baseline isolates (N′ = 1), central laboratory, mITT. The procedure: as §2
Assay [13] deals with non-speciated Corynebacterium. Particulars: Corynebacterium non-speciated baseline isolates (N′ = 2), central laboratory, mITT. How it is done: as §2

SMILES strings stand for the structures.

On to `CC1(C)S[C@@H]2[C@H](NC(=O)[C@H](N)c3ccc(O)cc3)C(=O)N2[C@H]1C(=O)O.O=C(O)[C@H]1/C(=C/CO)O[C@@H]2CC(=O)N21` [AMC], for which the “Mean MIC” value was found to be 8.00 µg/mL in [1]; 1.05 µg/mL in assay [2]; 0.25 µg/mL in assay [3]; 2.00 µg/mL in assay [4]; 2.00 µg/mL in assay [5]; 3.67 µg/mL in [6]. Moreover, the “Mean MIC” value in assay [7] is 0.12 µg/mL; in [8] it was 1.00 µg/mL; in [9], 3.00 µg/mL; in assay [10], 8.00 µg/mL; in [11] it was 0.50 µg/mL; in [12], 0.06 µg/mL. Also, in assay [13], the “Mean MIC” value is 4.03 µg/mL. For the same compound, the “n (% resistant)” value in [1], in assay [2], in assay [3], in assay [4], in assay [5] and in assay [6] was 0 (0.0) n (%) throughout. The “n (% resistant)” value in assay [7], in assay [8], in [9], in assay [10], in assay [11] and in [12] was 0 (0.0) n (%) throughout. Besides, in assay [13], the “n (% resistant)” value is 0 (0.0) n (%).

With `CC1(C)S[C@@H]2[C@H](NC(=O)[C@H](N)c3ccccc3)C(=O)N2[C@H]1C(=O)O` [AMP], the “Mean MIC” value amounted to 28.00 µg/mL in [1]; 2.60 µg/mL in [2]; 0.50 µg/mL in [3]; 16.00 µg/mL in [4]; 4.00 µg/mL in assay [5]; 7.33 µg/mL in [6]. Besides, the “Mean MIC” value in [7] came to 0.25 µg/mL. For the same compound, the “n (% resistant)” value in assay [1], in [2], in assay [3], in assay [4], in assay [5] and in [6] was 0 (0.0) n (%) throughout. In addition, in [7], the “n (% resistant)” value was 0 (0.0) n (%).

Consider `CN(C)c1ccc(O)c2c1C[C@H]1C[C@H]3[C@H](N(C)C)C(O)=C(C(N)=O)C(=O)[C@@]3(O)C(O)=C1C2=O` [MIN], for which the “Mean MIC” value in [1] turned out to be 0.11 µg/mL; in assay [2], 0.18 µg/mL; in assay [3], 0.25 µg/mL; in assay [4] it was 0.12 µg/mL; in assay [5], 0.12 µg/mL; in assay [6] it was 0.05 µg/mL. In addition, the “Mean MIC” value in assay [7] amounted to 0.06 µg/mL. Further, the “n (% resistant)” value in assay [1] is given as 0 (0.0) n (%); in assay [2], 0 (0.0) n (%); in assay [3], 0 (0.0) n (%); in [4], 0 (0.0) n (%); in assay [5], 0 (0.0) n (%); in [6] it was 0 (0 0) n (%). In addition, the “n (% resistant)” value in assay [7] is reported as 0 (0.0) n (%).

`Cc1onc(-c2ccccc2)c1C(=O)N[C@@H]1C(=O)N2[C@@H]1SC(C)(C)[C@@H]2C(=O)O` [OXA]: the “n (% resistant)” value in [1] is 4 (100.0) n (%); in assay [2] it was 2 (40.0) n (%); in [3], 1 (100.0) n (%); in [4] it was 1 (100.0) n (%); in [5], 1 (100.0) n (%); in [6], 2. (66.7) n (%). Moreover, the “n (% resistant)” value in assay [7] is recorded as 0 (0.0) n (%). For the same compound, the “Mean MIC” value in assay [2] came to 125 µg/mL; in [3], 2.00 µg/mL; in [4] it was 4.00 µg/mL; in assay [5], 4.00 µg/mL; in [6] it was 2.83 µg/mL; in assay [7], 0.25 µg/mL.

On to `COc1cc(Cc2cnc(N)nc2N)cc(OC)c1OC.Cc1cc(NS(=O)(=O)c2ccc(N)cc2)no1` [SXT], for which the “Mean MIC” value in assay [1] came to 2.09 µg/mL; in assay [2], 4.42 µg/mL; in assay [3], 8.00 µg/mL; in assay [4], 0.25 µg/mL; in assay [5], 8.00 µg/mL; in assay [6], 0.16 µg/mL. Further, the “Mean MIC” value was 0.12 µg/mL in [7]; 0.25 µg/mL in [8]; 2.00 µg/mL in [9]; 2.00 µg/mL in [10]; 4.00 µg/mL in assay [11]; 0.12 µg/mL in assay [12]. Moreover, the “Mean MIC” value in assay [13] stood at 2.25 µg/mL. Further, the “n (% resistant)” value in [1] was 1 (25.0) n (%); in assay [2] it was 3 (60.0) n (%); in assay [3], 1 (100.0) n (%); in assay [4], 10.0 n (%); in assay [6], 0 (0.0) n (%); in assay [8], 0 (0.0) n (%). Besides, the “n (% resistant)” value in assay [9], in [10] and in [12] was 0 (0.0) n (%) in each case.
